Reference: PMC8856595 (2021)

Key:
Test in all cases: ITC
[1] = system: aptananozyme II: 3'-amino-DBA (2) on Cu2+ C-dots (DNA, aptamer) CGACGCCAGTTTGAAGGTTCGTTCGCAGGTGTGGAGTGACGTCG; settings: 100 mM NaCl, 5 mM MgCl2, 5 mM MES, pH 5.5
[2] = system: aptananozyme V: 5'-amino-(TGTA)3-DBA (5) on Cu2+ C-dots (DNA, aptamer) TGTATGTATGTACGACGCCAGTTTGAAGGTTCGTTCGCAGGTGTGGAGTGACGTCG; settings: 100 mM NaCl, 5 mM MgCl2, 5 mM MES, pH 5.5
[3] = system: aptananozyme IV: 5'-amino-(TGTA)2-DBA (4) on Cu2+ C-dots (DNA, aptamer) TGTATGTACGACGCCAGTTTGAAGGTTCGTTCGCAGGTGTGGAGTGACGTCG; settings: 100 mM NaCl, 5 mM MgCl2, 5 mM MES, pH 5.5
[4] = system: aptananozyme I: 5'-amino-DBA (1) on Cu2+ C-dots (DNA, aptamer) CGACGCCAGTTTGAAGGTTCGTTCGCAGGTGTGGAGTGACGTCG; settings: 100 mM NaCl, 5 mM MgCl2, 5 mM MES, pH 5.5; for Kd: printed as 'the aptamer', methods: aptananozyme
[5] = system: aptananozyme III: 5'-amino-(TGTA)-DBA (3) on Cu2+ C-dots (DNA, aptamer) TGTACGACGCCAGTTTGAAGGTTCGTTCGCAGGTGTGGAGTGACGTCG; settings: 100 mM NaCl, 5 mM MgCl2, 5 mM MES, pH 5.5
[6] = system: aptananozyme XII: 5'-amino-(TGTA)-TBA (8) on Cu2+ C-dots (DNA, aptamer) TGTATGTGGTGTGTGAGTGCGGTGCCC; settings: 100 mM NaCl, 5 mM MgCl2, 50 mM phosphate, pH 7.2, Figure S16 legend: 50 mM NaCl, 10 mM MgCl2
[7] = system: aptananozyme XIII: 5'-amino-(TGTA)2-TBA (9) on Cu2+ C-dots (DNA, aptamer) TGTATGTATGTGGTGTGTGAGTGCGGTGCCC; settings: 100 mM NaCl, 5 mM MgCl2, 50 mM phosphate, pH 7.2, Figure S16 legend: 50 mM NaCl, 10 mM MgCl2
[8] = system: aptananozyme XI: 3'-amino-TBA (7) on Cu2+ C-dots (DNA, aptamer) TGTGGTGTGTGAGTGCGGTGCCC; settings: 100 mM NaCl, 5 mM MgCl2, 50 mM phosphate, pH 7.2, Figure S16 legend: 50 mM NaCl, 10 mM MgCl2
[9] = system: aptananozyme XIV: 5'-amino-(TGTA)3-TBA (10) on Cu2+ C-dots (DNA, aptamer) TGTATGTATGTATGTGGTGTGTGAGTGCGGTGCCC; settings: 100 mM NaCl, 5 mM MgCl2, 50 mM phosphate, pH 7.2, Figure S16 legend: 50 mM NaCl, 10 mM MgCl2
[10] = system: aptananozyme X: 5'-amino-TBA (6) on Cu2+ C-dots (DNA, aptamer) TGTGGTGTGTGAGTGCGGTGCCC; settings: 100 mM NaCl, 5 mM MgCl2, 50 mM phosphate, pH 7.2, Figure S16 legend: 50 mM NaCl, 10 mM MgCl2

## NCCc1ccc(O)c(O)c1
[1]
  binding: yes
[2]
  Kd: 3900 ± 200 nM
[3]
  binding: yes
[4]; aptamer on Cu2+ C-dots
  binding: yes
[5]
  binding: yes

## N[C@@H](Cc1ccc(O)c(O)c1)C(=O)O
[4]
  Kd: 1700 ± 400 nM

## NC(=O)[C@@H](N)Cc1ccc(O)cc1
[6]
  binding: yes
[7]
  binding: yes
[8]
  Kd: 1240 ± 50 nM
[9]
  Kd: 1400 ± 100 nM
[10]
  Kd: 830 ± 10 nM

## N[C@H](Cc1ccc(O)c(O)c1)C(=O)O
[4]
  Kd: 6600 ± 1000 nM
